# Test results reported in ChEMBL document CHEMBL3414487, “Synthesis and biological activity of salinomycin conjugates with floxuridine” (Eur J Med Chem, 2015).
# pIC50: −log10 of the molar value.
# Assays:
# Staphylococcus aureus [1] = assay: Antimicrobial activity against methicillin-resistant Staphylococcus aureus 452/11 after 18 hrs by two-fold serial microdilution method; format: functional; conditions: 452/11, 18 h
# Staphylococcus aureus [2] = assay: Antimicrobial activity against methicillin-resistant Staphylococcus aureus 456/11 after 18 hrs by two-fold serial microdilution method; format: functional; conditions: 456/11, 18 h
# [3] = system: Staphylococcus epidermidis; assay: Antimicrobial activity against methicillin-resistant Staphylococcus epidermidis 489/11 after 18 hrs by two-fold serial microdilution method; format: functional; conditions: 489/11, 18 h
# Staphylococcus aureus [4] = assay: Antimicrobial activity against Staphylococcus aureus ATCC 6538 after 18 hrs by two-fold serial microdilution method; format: functional; conditions: ATCC 6538, 18 h
# Staphylococcus aureus [5] = assay: Antimicrobial activity against methicillin-resistant Staphylococcus aureus 522/12 after 18 hrs by two-fold serial microdilution method; format: functional; conditions: 522/12, 18 h
# Staphylococcus aureus [6] = assay: Antimicrobial activity against methicillin-resistant Staphylococcus aureus 573/12 after 18 hrs by two-fold serial microdilution method; format: functional; conditions: 573/12, 18 h
# Staphylococcus aureus [7] = assay: Antimicrobial activity against methicillin-resistant Staphylococcus aureus 514/11 after 18 hrs by two-fold serial microdilution method; format: functional; conditions: 514/11, 18 h
# [8] = system: Staphylococcus epidermidis; assay: Antimicrobial activity against methicillin-resistant Staphylococcus epidermidis 461/11 after 18 hrs by two-fold serial microdilution method; format: functional; conditions: 461/11, 18 h
# [9] = system: Staphylococcus epidermidis; assay: Antimicrobial activity against Staphylococcus epidermidis ATCC 12228 after 18 hrs by two-fold serial microdilution method; format: functional; conditions: ATCC 12228, 18 h
# Staphylococcus aureus [10] = assay: Antimicrobial activity against Staphylococcus aureus […] 4163 after 18 hrs by two-fold serial microdilution method; format: functional
# [11] = Antiproliferative activity against human SW707 cells assessed as growth inhibition after 72 hrs by SRB method; format: functional, cell-based; conditions: Homo sapiens, SW707, 72 h
# BALB/3T3 = assay: Antiproliferative activity against mouse BALB/3T3 cells assessed as growth inhibition after 72 hrs by SRB method; format: cell-based; conditions: BALB/3T3, 72 h
# LoVo [12] = assay: Antiproliferative activity against human LoVo cells assessed as growth inhibition after 72 hrs by SRB method; format: functional, cell-based; conditions: Homo sapiens, LoVo, 72 h
# [13] = Antiproliferative activity against human doxorubicin-resistant LoVo/DX cells assessed as growth inhibition after 72 hrs by SRB method; format: functional, cell-based
# [14] = Antiproliferative activity against human vincristine-resistant HL60/Vinc cells assessed as growth inhibition after 72 hrs by MTT assay; format: functional; conditions: Homo sapiens, HL60/vinc, 72 h
# HT-29 [15] = assay: Antiproliferative activity against human HT-29 cells assessed as growth inhibition after 72 hrs by SRB method; format: functional, cell-based; conditions: Homo sapiens, HT-29, 72 h
# HL-60 [16] = assay: Selectivity index, ratio of IC50 for mouse BALB/3T3 cells to IC50 for human HL60 cells; format: functional
# HL-60 [17] = assay: Resistance index, ratio of IC50 for human HL60/Vinc cells to IC50 for human HL60 cells
# [18] = Selectivity index, ratio of IC50 for mouse BALB/3T3 cells to IC50 for human LoVo/DX cells; format: functional
# LoVo [19] = assay: Selectivity index, ratio of IC50 for mouse BALB/3T3 cells to IC50 for human LoVo cells; format: functional
# [20] = Selectivity index, ratio of IC50 for mouse BALB/3T3 cells to IC50 for human LS180 cells; format: functional
# [21] = system: Staphylococcus epidermidis; assay: Antimicrobial activity against methicillin-resistant Staphylococcus epidermidis 459/11 after 18 hrs by two-fold serial microdilution method; format: functional; conditions: 459/11, 18 h
# Staphylococcus aureus [22] = assay: Antimicrobial activity against methicillin-resistant Staphylococcus aureus 537/12 after 18 hrs by two-fold serial microdilution method; format: functional; conditions: 537/12, 18 h
# Staphylococcus aureus [23] = assay: Antimicrobial activity against Staphylococcus aureus ATCC 29213 after 18 hrs by two-fold serial microdilution method; format: functional; conditions: ATCC 29213, 18 h
# [24] = Selectivity index, ratio of IC50 for mouse BALB/3T3 cells to IC50 for human SW707 cells; format: functional
# [25] = system: Staphylococcus epidermidis; assay: Antimicrobial activity against methicillin-resistant Staphylococcus epidermidis 460/11 after 18 hrs by two-fold serial microdilution method; format: functional; conditions: 460/11, 18 h
# Staphylococcus aureus [26] = assay: Antimicrobial activity against methicillin-resistant Staphylococcus aureus 586/12 after 18 hrs by two-fold serial microdilution method; format: functional; conditions: 586/12, 18 h
# LoVo [27] = assay: Resistance index, ratio of IC50 for human LoVo/DX cells to IC50 for human LoVo cells
# [28] = Selectivity index, ratio of IC50 for mouse BALB/3T3 cells to IC50 for human HL60/Vinc cells; format: functional
# Staphylococcus aureus [29] = assay: Antimicrobial activity against methicillin-resistant Staphylococcus aureus 585/12 after 18 hrs by two-fold serial microdilution method; format: functional; conditions: 585/12, 18 h
# [30] = system: Staphylococcus epidermidis; assay: Antimicrobial activity against methicillin-resistant Staphylococcus epidermidis 470/11 after 18 hrs by two-fold serial microdilution method; format: functional; conditions: 470/11, 18 h
# [31] = Antiproliferative activity against human HL60 cells assessed as growth inhibition after 72 hrs by MTT assay; format: functional, cell-based; conditions: HL-60, 72 h
# [32] = Antiproliferative activity against human LS180 cells assessed as growth inhibition after 72 hrs by SRB method; format: functional, cell-based; conditions: Homo sapiens, LS180, 72 h
# Staphylococcus aureus [33] = assay: Antimicrobial activity against Staphylococcus aureus ATCC 25923 after 18 hrs by two-fold serial microdilution method; format: functional; conditions: ATCC 25923, 18 h
# [34] = system: Staphylococcus epidermidis; assay: Antimicrobial activity against methicillin-resistant Staphylococcus epidermidis 488/11 after 18 hrs by two-fold serial microdilution method; format: functional; conditions: 488/11, 18 h
# [35] = system: Staphylococcus epidermidis; assay: Antimicrobial activity against methicillin-resistant Staphylococcus epidermidis 468/11 after 18 hrs by two-fold serial microdilution method; format: functional; conditions: 468/11, 18 h
# Staphylococcus aureus [36] = assay: Antimicrobial activity against methicillin-resistant Staphylococcus aureus 572/12 after 18 hrs by two-fold serial microdilution method; format: functional; conditions: 572/12, 18 h
# HT-29 [37] = assay: Selectivity index, ratio of IC50 for mouse BALB/3T3 cells to IC50 for human HT-29 cells; format: functional
# [38] = system: Staphylococcus epidermidis; assay: Antimicrobial activity against methicillin-resistant Staphylococcus epidermidis 469/11 after 18 hrs by two-fold serial microdilution method; format: functional; conditions: 469/11, 18 h
# Staphylococcus aureus [39] = assay: Antimicrobial activity against methicillin-resistant Staphylococcus aureus 462/11 after 18 hrs by two-fold serial microdilution method; format: functional; conditions: 462/11, 18 h
# [40] = system: Staphylococcus epidermidis; assay: Antimicrobial activity against methicillin-resistant Staphylococcus epidermidis 467/11 after 18 hrs by two-fold serial microdilution method; format: functional; conditions: 467/11, 18 h
# [41] = system: Staphylococcus epidermidis; assay: Antimicrobial activity against Staphylococcus epidermidis ATCC 35984 after 18 hrs by two-fold serial microdilution method; format: functional; conditions: ATCC 35984, 18 h
# [42] = system: Staphylococcus epidermidis; assay: Antimicrobial activity against methicillin-resistant Staphylococcus epidermidis 466/11 after 18 hrs by two-fold serial microdilution method; format: functional; conditions: 466/11, 18 h
smiles,measurement,setting,value
O=C(O)c1cn(C2CC2)c2cc(N3CCNCC3)c(F)cc2c1=O [CIPROFLOXACIN],MIC,Staphylococcus aureus [1],96.7 µM
same,MIC,Staphylococcus aureus [2],96.7 µM
same,MIC,[3],0.76 µM
same,MIC,Staphylococcus aureus [4],0.76 µM
same,MIC,Staphylococcus aureus [5],96.7 µM
same,MIC,Staphylococcus aureus [6],96.7 µM
same,MIC,Staphylococcus aureus [7],96.7 µM
same,MIC,[8],0.76 µM
same,MIC,[9],0.76 µM
same,MIC,Staphylococcus aureus [10],0.76 µM
COc1cccc2c1C(=O)c1c(O)c3c(c(O)c1C2=O)C[C@@](O)(C(=O)CO)C[C@@H]3O[C@H]1C[C@H](N)[C@H](O)[C@H](C)O1 [DOXORUBICIN],pIC50,[11],6.74
same,pIC50,BALB/3T3,6.74
same,pIC50,LoVo [12],6.82
same,pIC50,[13],5.26
same,pIC50,[14],6.06
same,pIC50,HT-29 [15],6.05
O=c1[nH]c(=O)n([C@H]2C[C@H](O)[C@@H](CO)O2)cc1F [FLOXURIDINE],MIC,Staphylococcus aureus [1],≤ 0.016 µM
same,Selectivity Index,HL-60 [16],99.58
same,Ratio IC50,HL-60 [17],72.5
same,Selectivity Index,[18],1.43
same,pIC50,[11],4.62
same,Selectivity Index,LoVo [19],1.25
same,MIC,Staphylococcus aureus [2],≤ 0.016 µM
same,Selectivity Index,[20],0.17
same,MIC,[3],≤ 0.016 µM
same,MIC,[21],≤ 0.016 µM
same,MIC,Staphylococcus aureus [22],≤ 0.016 µM
same,pIC50,BALB/3T3,4.62
same,MIC,Staphylococcus aureus [23],≤ 0.016 µM
same,Selectivity Index,[24],1
same,MIC,[25],≤ 0.016 µM
same,MIC,Staphylococcus aureus [26],≤ 0.016 µM
same,Ratio IC50,LoVo [27],0.87
same,Selectivity Index,[28],1.37
same,pIC50,LoVo [12],4.72
same,MIC,Staphylococcus aureus [29],≤ 0.016 µM
same,MIC,[30],≤ 0.016 µM
same,pIC50,[31],6.62
same,pIC50,[32],3.85
same,MIC,Staphylococcus aureus [33],≤ 0.016 µM
same,MIC,[34],≤ 0.016 µM
same,MIC,Staphylococcus aureus [4],≤ 0.016 µM
same,MIC,[35],≤ 0.016 µM
same,MIC,Staphylococcus aureus [5],≤ 0.016 µM
same,MIC,Staphylococcus aureus [36],≤ 0.016 µM
same,Selectivity Index,HT-29 [37],0.21
same,MIC,Staphylococcus aureus [6],≤ 0.016 µM
same,MIC,[38],≤ 0.016 µM
same,MIC,Staphylococcus aureus [39],≤ 0.016 µM
same,MIC,[40],≤ 0.016 µM
same,pIC50,[13],4.78
same,MIC,Staphylococcus aureus [7],≤ 0.016 µM
same,MIC,[8],≤ 0.016 µM
same,MIC,[9],≤ 0.016 µM
same,pIC50,[14],4.76
same,MIC,[41],≤ 0.016 µM
same,MIC,[42],≤ 0.016 µM
same,pIC50,HT-29 [15],3.94
same,MIC,Staphylococcus aureus [10],≤ 0.016 µM
